{"source": "patent US7138361B2", "about": "“Herbicidal heterocycles” (E. I. du Pont de Nemours and Company, priority 2000, dated 2006)", "assay_in_all_cases": "Test D greenhouse paddy-water test in rice", "format_in_all_cases": "in vivo", "conditions_in_all_cases": "500 g/ha alone, 21 days, 0-100 scale", "key": {"[1]": {"tested_on": "Alisma plantago-aquatica (Ap)", "description": "(§1) Four plastic pots (ca. 16-cm diameter) per rate were partially filled with sterilized Tama silt loam soil comprised of a 35:50:15 ratio of sand, silt and clay and 2.6% organic matter. Separate plantings for each of the four pots were as follows. Seeds from the U.S. of Heteranthera limosa (Hl), Monochoria vaginalis (Mv), Ammania auriculata (Aa), and Sphenoclea zeylanica (Sz) were planted into one 16-cm pot for each rate. Seeds from the U.S. of Cyperus iria (Ci), Leptochloa fascicularis (Li), one stand of 9 or 10 direct-seeded rice seedlings (Oryza saliva cv. ‘Japonica—M202’; Oss), and one stand of 6 transplanted rice seedlings (Oryza sativa cv. ‘Japonica—M202’; Ost) were planted into one 16-cm pot for each rate. Seeds from the U.S. of Cyperus difformis (Cd), Alisma plantago-aquatica (Ap), and Scirpus mucronatus (Sm) were planted into one 16-cm pot for each rate. Seeds from the U.S. of Echinochloa crus-galli (Ecg), Echinochloa oryzicola (Eor), Echinochloa oryzoides (Eoz) and Echinochloa colonum (Ecc) were planted into one 16-cm pot for each rate. Plantings were sequential so that crop and weed species were at the 2.0 to 2.5-leaf stage at time of treatment.\n(§2) Potted plants were grown in a greenhouse with day/night temperature settings of 29.5/26.7° C., and supplemental balanced lighting was provided to maintain a 16-hour photoperiod. Test pots were maintained in the greenhouse until test completion.\n(§3) Chemical treatments consisting of Compound 1 of Index Table A (Cmpd 1), daimuron (Cmpd D), quinoclamine (Cmpd Q) and combinations thereof were formulated in acetone. At time of treatment, test pots were flooded to 3 cm above the soil surface, treated by application of test compounds directly to the paddy water, and then maintained at that water depth for the duration of the test. Effects of treatments on rice and weeds were visually evaluated by comparison to untreated controls after 21 days. Plant response ratings are reported on a 0 to 100 scale; where 0 is no effect and 100 is complete control. ND means no data.\n(§4) Colby's equation was used to calculate the expected additive herbicidal effect of the mixtures of Compound 1 with daimuron (Cmpd D) and quinoclamine (Cmpd Q). Colby's equation (Colby, S. R “Calculating Synergistic and Antagonistic Responses of Herbicide Combinations,” Weeds, 15(1), pp 20–22 (1967)) calculates the expected additive effect of herbicidal mixtures, and for two active ingredients is of the form: Pa+b=Pa+Pb−(PaPb/100) wherein Pa+b is the percentage effect of the mixture expected from additive contribution of the individual components, • Pa is the observed percentage effect of the first active ingredient at the same use rate as in the mixture, and • Pb is the observed percentage effect of the second active ingredient at the same use rate as in the mixture."}, "Ammania auriculata (Aa)": {"tested_on": "Ammania auriculata (Aa)", "description": "as §1, §2, §3, §4"}, "Cyperus difformis (Cd)": {"tested_on": "Cyperus difformis (Cd)", "description": "as §1, §2, §3, §4"}, "Cyperus iria (Ci)": {"tested_on": "Cyperus iria (Ci)", "description": "as §1, §2, §3, §4"}, "[2]": {"tested_on": "Echinochloa colonum (Ecc)", "description": "as §1, §2, §3, §4"}, "[3]": {"tested_on": "Echinochloa crus-galli (Ecg)", "description": "as §1, §2, §3, §4"}, "[4]": {"tested_on": "Echinochloa oryzicola (Eor)", "description": "as §1, §2, §3, §4"}, "[5]": {"tested_on": "Echinochloa oryzoides (Eoz)", "description": "as §1, §2, §3, §4"}, "Heteranthera limosa (Hl)": {"tested_on": "Heteranthera limosa (Hl)", "description": "as §1, §2, §3, §4"}, "[6]": {"tested_on": "Leptochloa fascicularis (Li)", "description": "as §1, §2, §3, §4"}, "[7]": {"tested_on": "Monochoria vaginalis (Mv)", "description": "as §1, §2, §3, §4"}, "[8]": {"tested_on": "Sphenoclea zeylanica (Sz)", "description": "as §1, §2, §3, §4"}, "[9]": {"tested_on": "direct-seeded rice seedlings (Oryza saliva cv. 'Japonica—M202'; Oss)", "description": "as §1, §2, §3, §4"}, "[10]": {"tested_on": "transplanted rice seedlings (Oryza sativa cv. 'Japonica—M202'; Ost)", "description": "as §1, §2, §3, §4"}}, "data": [{"molecule": "Cc1ccc(NC(=O)NC(C)(C)c2ccccc2)cc1", "note": "[daimuron, reference compound]", "values": [{"measurement": "Obs. (observed effect) Ap", "setting": "[1]", "result": 0}, {"measurement": "Obs. (observed effect) Aa", "setting": "Ammania auriculata (Aa)", "result": 0}, {"measurement": "Obs. (observed effect) Cd", "setting": "Cyperus difformis (Cd)", "result": 60}, {"measurement": "Obs. (observed effect) Ci", "setting": "Cyperus iria (Ci)", "result": 0}, {"measurement": "Obs. (observed effect) Ecc", "setting": "[2]", "result": 0}, {"measurement": "Obs. (observed effect) Ecg", "setting": "[3]", "result": 0}, {"measurement": "Obs. (observed effect) Eor", "setting": "[4]", "result": 0}, {"measurement": "Obs. (observed effect) Eoz", "setting": "[5]", "result": 0}, {"measurement": "Obs. (observed effect) Hl", "setting": "Heteranthera limosa (Hl)", "result": 30}, {"measurement": "Obs. (observed effect) Lf", "setting": "[6]", "result": 0}, {"measurement": "Obs. (observed effect) Mv", "setting": "[7]", "result": 30}, {"measurement": "Obs. (observed effect) Sz", "setting": "[8]", "result": 20}, {"measurement": "Obs. (observed effect) Oss", "setting": "[9]", "result": 0}, {"measurement": "Obs. (observed effect) Ost", "setting": "[10]", "result": 0}]}]}
